Data on five compounds can be found in patent publication US20200022965A1, “PHARMACEUTICAL COMPOSITION FOR CANCER TREATMENT AND USE THEREOF” (priority 2016, published 2020).

The conditions of series [1]: cited from earlier work; for oral absorption: taken orally.
The subject of series [2] is colonic cancer cells HCT116. In words: HCT116 colonic cancer xenograft in nude mice, two weeks of drug delivery (Embodiment 1): cancer volume and weight. Format: in vivo. As to conditions: HCT116, ig, within 2 weeks, vs solvent group, FIG. 1-3. An excerpt:
Nude mice were transplanted with colonic cancer cells HCT116; after the cancer volumes reached 200-300 mm3, the mice were randomly grouped, 8 pieces in each group; the mice were fed with drugs for two weeks. The drug delivery solution can be seen in Table 2 below: […]

For series [3] the following is noted: cited from earlier work.
In series [4] the test system is dihydropyrimidine dehydrogenase (DPD). The conditions noted are these: cited from earlier work.

Each structure is given as a SMILES string.

Regarding `O=c1[nH]cc(F)c(=O)[nH]1` [5-Fluorouracil (5-FU), 5-Fluorouracil], the t1/2 result in series [1] (in vivo) is on record as “absorption t1/210~20 min,”. For the same compound, the oral absorption entry in series [1] is on record as “Incomplete oral”.

As for `CCCCCOC(=O)Nc1nc(=O)n([C@@H]2O[C@H](C)[C@@H](O)[C@H]2O)cc1F` [Capecitabine, 5′-deoxy-5-fluoro-N[(pentyloxy)carbonyl]cytidine], in series [1] (after the drug is taken orally), the “5-FU concentration in the cancer tissues versus that in the blood” value is on record as “is 100 times higher”. Moreover, in series [1] (in vivo), the t1/2 result is “orally. t1/2 0.5~1.0 h”. Also, in series [1], the oral absorption result is on record as “Quickly absorbed by”. Also, the “volume and weight of the cancer” value in series [2] is “failed to reduce the volume and weight of the cancer”.

For the compound `Oc1cc(O)c(Cl)cn1` [Gimeracil (CDHP), 2,4-dyhydroxy-5-chloro pyridine], the “anti-cancer activities when individually used” value in series [3] is “no obvious anti-cancer activities”. In series [4], the “5-FU degradation inhibition effect relative to uracil” value is given as 180 times that of the uracil. For the same compound, the “DPD inhibiting effect relative to uracil” value in series [4] (reversible inhibitor of the DPD) is 180 times that of uracil.

Consider `O=C(O)c1nc(=O)[nH]c(=O)[nH]1` [Oteracil potassium (OXO), Oteracil potassium], for which the “anti-cancer activities when individually used” value in series [3] is on record as “no obvious anti-cancer activities”.

For `O=c1[nH]c(=O)n(C2CCCO2)cc1F` (centres unmarked) [Tegafur (FT-207), 1-(etrahydro-2-furyl)-5-fluoro-2,4(1H,3H)-pyrimidinedione], in series [1] (in vivo), the lipid solubility entry was “tract. It has higher” and the t1/2 result is reported as “absorption t1/25 h”. For the same compound, the oral absorption result in series [1] is reported as “Good oral”. Further, the “discharged in the original form along with the urine” value in series [1] (within 24 h after drug delivery) is on record as 23% is discharged.
